Laboratory results from publication PMC4441091 (Chemical & pharmaceutical bulletin, 2014).
Read-outs that look alike come from different tables or passages of the source.

Columns and labels:
[1] = biological target: T1, FASN-TE; rTE (recombinant TE domain of human FASN) (Homo sapiens, UniProt P49327); experiment: fluorogenic thioesterase assay; assay type: biochemical
[2] = biological target: T1, FASN-TE; rTE (recombinant TE domain of human FASN); experiment: fluorogenic thioesterase assay; assay type: biochemical; remark: listed apart in the source

T1 sequence (P49327 2218-2511 limits assumed): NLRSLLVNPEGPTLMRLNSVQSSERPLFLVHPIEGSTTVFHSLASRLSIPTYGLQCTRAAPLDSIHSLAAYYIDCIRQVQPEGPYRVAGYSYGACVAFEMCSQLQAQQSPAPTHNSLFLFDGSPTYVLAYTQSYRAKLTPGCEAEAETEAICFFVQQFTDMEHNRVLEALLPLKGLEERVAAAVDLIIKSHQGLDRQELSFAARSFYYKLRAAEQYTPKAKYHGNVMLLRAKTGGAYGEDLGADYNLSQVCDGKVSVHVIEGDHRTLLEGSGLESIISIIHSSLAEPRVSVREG

Row | Compound | IC50 [1] | also measured
1 | CC1=C(Br)C(=O)c2ccccc2C1=O [1a, NS-4390] | – | IC50 ([1]; read-out: rTE IC50, substrate 4-methylumbelliferyl heptanoate): 12.5 µM
2 | CC1=CC(=O)c2ccccc2C1=O [1c, menadione] | 21.9 µM | –
3 | CC1=CC(=O)c2c(O)cccc2C1=O [1d, plumbagin] | 10.9 µM | –
4 | O=C1C=CC(=O)c2c(O)cccc21 [1g, juglone] | 0.1 µM | –
5 | O=C1C=C(N2CCOCC2)C(=O)c2c(O)cccc21 [1h, 8-Hydroxy-2-morpholinonaphthalene-1,4-dione] | 26.4 µM | –
6 | O=C1C=CC(=O)c2c(O)ccc(O)c21 [1i, naphthazarin] | – | IC50 [2]: 3.5 µM

Continued, in another order:

Row | IC50 [1] | Compound | also measured
7 | 6.4 µM | O=C1C=CC(=O)C(SC2CCCC2)=C1 [2e, 2-(Cyclopentylthio)cyclohexa-2,5-diene-1,4-dione] | –
8 | 6.2 µM | CCCCCCCSC1=CC(=O)C=CC1=O [2f, 2-(Heptylthio)cyclohexa-2,5-diene-1,4-dione] | –
9 | 0.2 µM | O=C1C=CC(=O)C(Sc2ccccc2)=C1 [2g, 2-(Phenylthio)cyclohexa-2,5-diene-1,4-dione] | –
